The assay deals with T1, Solute carrier family 12 member 5 (Homo sapiens, UniProt Q9H2X9).
T1 sequence (Q9H2X9 whole entry): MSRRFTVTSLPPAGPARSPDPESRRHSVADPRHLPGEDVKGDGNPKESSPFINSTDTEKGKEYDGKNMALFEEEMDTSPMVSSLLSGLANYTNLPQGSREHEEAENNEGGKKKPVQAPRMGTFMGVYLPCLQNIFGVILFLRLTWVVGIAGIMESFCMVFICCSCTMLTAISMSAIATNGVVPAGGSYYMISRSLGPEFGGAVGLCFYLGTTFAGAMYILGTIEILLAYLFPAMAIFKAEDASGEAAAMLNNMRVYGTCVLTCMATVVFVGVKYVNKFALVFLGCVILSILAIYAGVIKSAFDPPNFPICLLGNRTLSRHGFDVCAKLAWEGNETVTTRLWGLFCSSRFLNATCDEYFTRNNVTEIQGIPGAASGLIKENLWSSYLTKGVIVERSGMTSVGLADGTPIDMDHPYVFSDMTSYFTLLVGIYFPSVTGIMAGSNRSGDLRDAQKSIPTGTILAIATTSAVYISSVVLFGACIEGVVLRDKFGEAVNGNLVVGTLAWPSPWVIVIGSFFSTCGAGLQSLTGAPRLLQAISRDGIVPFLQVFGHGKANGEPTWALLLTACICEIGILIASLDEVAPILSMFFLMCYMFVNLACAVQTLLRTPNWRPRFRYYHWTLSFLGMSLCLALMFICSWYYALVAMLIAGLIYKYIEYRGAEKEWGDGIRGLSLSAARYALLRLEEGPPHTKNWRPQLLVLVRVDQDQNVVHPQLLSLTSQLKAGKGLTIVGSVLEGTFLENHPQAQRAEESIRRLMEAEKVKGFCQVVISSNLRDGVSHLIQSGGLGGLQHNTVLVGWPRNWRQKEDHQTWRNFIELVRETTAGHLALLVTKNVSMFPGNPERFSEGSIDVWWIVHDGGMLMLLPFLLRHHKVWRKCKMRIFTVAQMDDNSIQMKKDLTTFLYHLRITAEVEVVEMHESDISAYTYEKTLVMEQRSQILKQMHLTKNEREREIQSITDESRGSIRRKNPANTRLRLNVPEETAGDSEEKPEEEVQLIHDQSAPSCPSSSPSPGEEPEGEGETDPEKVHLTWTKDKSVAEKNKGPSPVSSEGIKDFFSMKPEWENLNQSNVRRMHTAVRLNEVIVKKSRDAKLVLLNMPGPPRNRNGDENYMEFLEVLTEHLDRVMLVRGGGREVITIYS
Kind of assay: KCC2 cotransport modulators, dose response, cell-based, assay 2 (AID 1723).

The results in this text go back to BindingDB's records for doi:10.7270/Q2QV3JZ2 (Vanderbilt Screening Center for GPCRs, Ion Channels and …, 2009).

By EC50 is commonly meant the concentration needed to bring the measured effect to its halfway point.

Molecules are shown by their SMILES.

For the compound `S=c1nc(-c2ccc3c(c2)CCO3)cc[nH]1`, the EC50 turned out to be 11.2 µM. This counts as double-digit micromolar.
The compound `COc1cc(NC(=S)NC(=O)c2ccco2)ccc1NC(=O)C(C)C` [MLS000672338] displayed a half-maximal effective concentration (EC50) of 12 µM.
With `O=[N+]([O-])c1ccccc1C=C[CH+][N-]n1c(-c2ccc(Cl)cc2)n[nH]c1=S` [MLS000555506], the EC50 worked out at 148 µM.
Take `Cc1ccc(-c2ccc(C=NNC(N)=S)o2)cc1` [1-[[5-(4-methylphenyl)furan-2-yl]methylideneamino]thiourea]: the half-maximal effective concentration (EC50) (inactive by the depositor's call) was 47 µM.
In the case of `O=c1c2ccccc2[nH]c(=S)n1CCN1CCC(=C(c2ccc(F)cc2)c2ccc(F)cc2)CC1` [SMR000058550], the EC50 came out at 8.8 µM.
Turning to `S=C(NCCc1ccccc1)NN=Cc1cccc(Cl)c1Cl` [1-[(2,3-dichlorobenzylidene)amino]-3-phenethyl-thiourea], the EC50 was determined as 14.9 µM.
Take `O=C(C=Cc1ccccc1)CC(=O)c1ccccc1O` [MLS000627068]: the 50% effective concentration (EC50) stood at 23.6 µM. This EC50 is about 1.6-fold higher than that of the compound before.
The same measure, in the same setting: in the case of `COC(=O)c1sccc1NC(=S)OC` [3-(methoxycarbothioylamino)thiophene-2-carboxylic acid methyl ester] it was 2.46 µM; in that of `O=C(NC(=S)Nc1nc(-c2cccc([N+](=O)[O-])c2)cs1)c1ccccc1Cl` [2-chloranyl-N-[[4-(3-nitrophenyl)-1,3-thiazol-2-yl]carbamothioyl]benzamide], 74 µM.
The same measure, in the same setting: in the case of `CCOc1cccc(C(=O)NC(=S)Nc2cccc(C)c2)c1` [3-ethoxy-N-(m-tolylthiocarbamoyl)benzamide] it was 1.33 µM; in that of `O=C1OC(c2ccc(O)cc2)(c2ccc(O)cc2)c2ccccc21`, 8.04 µM.
`CC(C)c1ccc(OCC(=O)NNC(=O)c2cnccn2)cc1` [MLS000332605] had a half-maximal effective concentration (EC50) of 17 µM.
The compound `Cc1nn(-c2nc3ccccc3[nH]2)c(N)c1-c1ccccc1` [MLS000063763] displayed an EC50 of 1.42 µM.
`Cc1[nH]n2c(=O)cc(C(C)C)nc2c1-c1ccccc1` registered an EC50 of 16.1 µM.
On the same count and under the same terms, in the case of `Oc1ccccc1CN=Nc1nc2ccccc2o1` [(6E)-6-[(1,3-benzoxazol-2-ylhydrazo)methylidene]-1-cyclohexa-2,4-dienone] it was 49 µM; in that of `Fc1cccc(F)c1C=NNC(=S)Nc1cccnc1` [1-[(2,6-difluorobenzylidene)amino]-3-(3-pyridyl)thiourea], 25.4 µM; in that of `NC(=S)NN=C1C(=O)N(Cc2ccc(F)cc2)c2ccccc21` [1-[(Z)-[1-[(4-fluorophenyl)methyl]-2-oxidanylidene-indol-3-ylidene]amino]thiourea], 5.71 µM.
On to `CCOc1[nH]n(-c2ccccc2)c(=O)c1C=Nc1ccc(F)cc1F` [(4E)-4-[[[2,4-bis(fluoranyl)phenyl]amino]methylidene]-5-ethoxy-2-phenyl-pyrazol-3-one], for which the half-maximal effective concentration (EC50) was determined as 976 µM.
As to `Cc1cccc(N2CCN(C(=O)CCCn3c(=S)[nH]c4cc5c(cc4c3=O)OCO5)CC2)c1C` [MLS000095366], the EC50 stood at 9.51 µM.
The same measure, in the same setting: with `O=[N+]([O-])c1ccc(-c2cn(-c3ccccc3F)c(=S)[nH]2)cc1` the figure was 0.507 µM.
